Laboratory results reported in US20220340566A1, “BENZYL AMINE-CONTAINING 5,6-HETEROAROMATIC COMPOUNDS USEFUL AGAINST MYCOBACTERIAL INFECTION” (priority 2019, published 2022).
Where two headings read alike, the source gives them in different places.

Columns and labels:
[1] = Metabolic stability test in pooled human liver microsomes; type: in vitro ADME; details: human liver microsomes 0.5 mg protein/mL, 1 mmol/L NADPH, 37° C., 30 minutes
Procedure: Using a commercially available pooled human liver microsomes, a compound of the present invention was reacted for a constant time, a remaining rate was calculated by comparing a reacted sample and an unreacted sample, thereby, a degree of metabolism in liver was assessed.
A reaction was performed (oxidative reaction) at 37° C. for 0 minute or 30 minutes in the presence of 1 mmol/L NADPH in 0.2 mL of a buffer (50 mmol/L Tris-HCl pH 7.4, 150 mmol/L potassium chloride, 10 mmol/L magnesium chloride) containing 0.5 mg protein/mL of human liver microsomes. After the reaction, 50 μL of the reaction solution was added to 100 μL of a methanol/acetonitrile=1/1 (v/v), mixed and centrifuged at 3000 rpm for 15 minutes. The compound of the present invention in the supernatant was quantified by LC/MS/MS or solid phase extraction (SPE)/MS, and a remaining amount of the compound of the present invention after the reaction was calculated, letting a compound amount at 0 minute reaction time to be 100%.

[2] = tested on: Mycobacterium avium ATCC700898; experiment: Determination of IC85 against M. avium (resazurin fluorescence); type: cell-based; details: 37° C., 3 days incubation then resazurin, fluorescence one day later
[3] = Mycobacterium avium, ATCC700898, M. avium ATCC700898, CAMHB medium, read-out: IC85

SMILES	MS_h_% (remaining amount of compound after reaction, 0 minute = 100%) [1] [%]	IC85 [2, 3] [nM]	IC85 ([2]; M. avium ATCC700898, CAMHB medium) [nM]
Cc1ccn2c(C(=O)NCc3ccc(C4CCN(c5ccc(OC(F)(F)F)cc5)CC4)cc3F)c(C)nc2c1 [Compound I-1-8]	86	580	–
CCc1nc2ccc(Cl)cn2c1C(=O)NCc1ccc(N2CCC(c3ccc(OC(F)(F)F)cc3)CC2)c(Cl)c1.Cl [Compound I-1-80]	74	60	–
Cc1ccn2c(C(=O)NCc3ccc4oc(-c5ccc(OC(F)(F)F)cc5)nc4c3)c(C)nc2c1.Cl [Compound I-3-17]	81.1	860	–
Cc1ccn2c(C(=O)NCc3ccc(C4CCN(c5ccc(OC(C)C)cc5)CC4)c(F)c3)c(C)nc2c1 [Compound I-1-4]	88	100	–
CCc1nc2ccc(Cl)cn2c1C(=O)NCc1ccc(N2CCN(c3ccc(OC(F)(F)F)cc3)C(C)(C)C2)c(F)c1 [Compound I-1-32]	62	9.1	–
CCc1nc2ccc(Cl)cn2c1C(=O)NCc1ccc(N2CCN(c3ncc(C(F)(F)F)cc3F)[C@@H](C)C2)c(F)c1.Cl [Compound I-1-99]	77	35	–
CC1=CN2C(=NC(C)C2C(=O)NCc2ccc3c(c2)OCCO3)C=C1 (centres unmarked) [Compound I-3-38]	67.7	860	–
Cc1ccn2c(C(=O)NCc3ccc(Oc4ccc(C(F)(F)F)cc4)cc3)c(C)nc2c1 [Compound I-3-19]	80.9	440	–
Cc1cn2c(C(=O)NCc3ccc(C4CCN(c5ccc(OC(F)(F)F)cc5)CC4)c(F)c3)c(C)nc2s1 [Compound I-3-31]	73.9	330	–
Cc1cn2c(C(=O)NCc3ccc(N4CCN(c5ccc(OC(F)(F)F)cc5)[C@@H](C)C4)c(Cl)c3)c(C)nc2s1.Cl [Compound I-3-29]	75.1	61	–
Cc1ccn2c(C(=O)NCc3ccc(C4CCN(c5ccc(OCCF)cc5)CC4)c(F)c3)c(C)nc2c1 [Compound I-1-5]	70	48	–
[2H]c1c(C([2H])([2H])[2H])c([2H])n2c(C(=O)NCc3ccc(Oc4cccc(C(F)(F)F)c4)cc3)c(C)nc2c1[2H] [Compound I-3-15]	82.4	230	–
Cc1nc2cc(Cl)ccn2c1C(=O)NCc1ccc(N2CCN(c3ccc(OC(F)(F)F)cc3)[C@@H](C)C2)c(F)c1.Cl [Compound I-1-51]	90	110	–
Cc1cn2c(C(=O)NCc3ccc(N4CCN(c5ccc(C(F)(F)F)cn5)CC4)c(C(F)(F)F)c3)c(C)nc2cc1Cl [Compound I-2-7]	79.3	590	–
CCc1nc2ccc(Cl)cn2c1C(=O)NCc1ccc(C2CCN(c3ccc(OCC(F)(F)F)nc3)CC2)cc1F.Cl [Compound I-1-142]	71	30	–
COc1ccn2nc(C)c(C(=O)NCc3ccc(N4CCN(c5ccc(OC(F)(F)F)cc5)[C@@H](C)C4)cc3)c2c1 [Compound I-3-50]	58.5	5.8	–
CCc1nc2ccc(Cl)cn2c1C(=O)NCc1ccc(C2CCN(c3ccc(OCC4CC4)cc3)CC2)c(F)c1.Cl [Compound I-1-75]	71	16	–
Cc1ccn2c(C(=O)NCc3ccc(N4CCC(c5ccc(OC(F)(F)F)cc5)CC4)c(F)c3)c(C)nc2c1.Cl [Compound I-1-65]	96	120	–
Cc1nc2ccc(Br)cn2c1C(=O)NCc1ccc(N2CCN(c3ccc(OC(F)(F)F)cc3)[C@@H](C)C2)c(F)c1 [Compound I-2-14]	67	4.5	–
Cc1nc2ccc(F)cn2c1C(=O)NCc1ccc(N2CCN(c3ccc(OC(F)(F)F)cc3)[C@@H](C)C2)c(F)c1 [Compound I-1-26]	93	15	–
O=C(NCc1ccc(C2CCN(c3ccc(OC(F)(F)F)cc3)CC2)c(F)c1)c1c(C(F)(F)F)nc2ccc(Cl)cn12 [Compound I-1-30]	89	–	3.1
CCc1nc2ccc(Cl)cn2c1C(=O)NCc1ccc([C@@H]2CO[C@@H](c3ccc(OC(F)(F)F)cc3)CO2)c(F)c1 [Compound I-1-86]	77	28	–
